Assay results published in article PMC9021288 (Nature Communications, 2022).
Where “and” joins values, the source holds several entries; their conditions need not be identical. Equal values may be shown once.

What was measured:
[1] = Pharmacokinetics in mice; assay type: in vivo, male CD1 mice
Protocol: (§1) Subsequently, samples were spun down at 1640 g for 5-10 min at 4 °C within 30 min after collection and plasma was collected. […] Urine was collected following an intravenous dose in both rat and dog, allowing renal clearance to be estimated. Human renal clearance was estimated from dog renal clearance as previously described[40] and other human PK parameters were predicted using allometric scaling and/or in vitro clearance data. PK parameters were calculated by naïve pooled approach using WinNonLin software (Phoenix, version 6.3).

[2] = system: P. falciparum Dd2-B2 and NF54-HGL; test: In vitro selection of drug-resistant parasites; assay type: cell-based, Plasmodium falciparum
Protocol: Drug media was changed daily until cultures were cleared and every other day subsequently. […] Recrudescence was monitored by flow cytometry on an Accuri C6 (BD Biosciences) using BD C6 Plus for 60 days using SYBR Green and MitoTracker Deep Red FM (Life Technologies) as nuclear stain and vital dye, respectively, and data were analyzed using FlowJo (Supplementary Fig. 23). […] Whole-genome sequencing was performed to test for single nucleotide polymorphisms (SNPs) or copy number variations.

[3] = system: CYP1A2; test: CYP induction (mRNA) in human hepatocytes; assay type: in vitro ADME; settings: for CYP1A2 mean fold induction: per donor
Protocol: (§2) Positive control inducers (omeprazole for CYP1A2, phenobarbital for CYP2B6, and rifampicin for CYP3A4), were incubated alongside the test compound. For mRNA assessment, cells were lysed and resultant samples analyzed using an ABI 7900 HT real-time PCR system.

[4] = system: CYP3A4; test: CYP induction (mRNA) in human hepatocytes; assay type: in vitro ADME; settings: for CYP3A4 mean fold induction: per donor
Protocol: as §2

[5] = system: CYP2B6; test: CYP induction (mRNA) in human hepatocytes; assay type: in vitro ADME; settings: for CYP2B6 mean fold induction: per donor
Protocol: as §2

[6] = system: P. falciparum NF54 rings and schizonts; test: Stage-specific activity on synchronized ring and schizont cultures; assay type: cell-based, Plasmodium falciparum
Protocol: Asynchronous NF54 parasites were cultured in a semi-automated shaker system[63] and synchronized once with 5% D-sorbitol. […] This yielded a parasite culture with ≥ 90% rings. To assess the schizont-stage activity of MMV693186, the initial synchronized culture was treated again with sorbitol 7 h later. Subsequently, parasites were cultured for another 17 h to yield a parasite culture of ≥ 90% early schizont stages. The ring and schizont synchronized cultures were diluted to 0.5% and then incubated with either 50 nM DHA or 50 nM MM693183 for 24 h in duplicate. Subsequently, the drug was washed out and parasites were cultured for another 24 h. Parasitemia was determined using Giemsa-stained thin smears at 0 h, 24 h, and 48 h after drug exposure.

[7] = Pharmacokinetics in rats; assay type: in vivo, Sprague Dawley rats
Protocol: as §1

C[C@@H](CNC(=O)[C@H](O)C(C)(C)CO)NC(=O)c1cc(F)c(F)cc1F [MMV693183]
Observed hepatic/ predicted hepatic ([1]; Mouse): < 1.9 | Observed total-renal = observed hepatic ([1]; Mouse): < 13.4 mL/min/kg | Predicted hepatic plasma clearance ([1]; Mouse, from in vitro hepatic clearance, Fu,p and B:P): 7 mL/min/kg and 7.0 mL/min/kg | Norm. conc i.v. ([1]; Mouse, Time (hrs) 0): 0 ng/mL | Norm. conc i.v. ([1]; Mouse, Time (hrs) 0.083333): 1320 ng/mL and 1393.33 ng/mL and 1330 ng/mL | Norm. conc i.v. ([1]; Mouse, Time (hrs) 0.25): 846.667 ng/mL and 920 ng/mL and 863.333 ng/mL | Norm. conc i.v. ([1]; Mouse, Time (hrs) 0.5): 636.667 ng/mL and 626.667 ng/mL and 630 ng/mL | Norm. conc i.v. ([1]; Mouse, Time (hrs) 1): 324.667 ng/mL and 366.667 ng/mL and 300 ng/mL | Norm. conc i.v. ([1]; Mouse, Time (hrs) 2): 132.333 ng/mL and 151 ng/mL and 104 ng/mL | Norm. conc i.v. ([1]; Mouse, Time (hrs) 4): 39.3333 ng/mL and 48.3333 ng/mL and 26.9333 ng/mL | Norm. conc p.o. ([1]; Mouse, Time (hrs) 0): 0 ng/mL | Norm. conc p.o. ([1]; Mouse, Time (hrs) 0.25): 870 ng/mL and 850 ng/mL and 790 ng/mL | Norm. conc p.o. ([1]; Mouse, Time (hrs) 0.5): 610 ng/mL and 600 ng/mL and 553.333 ng/mL | Norm. conc p.o. ([1]; Mouse, Time (hrs) 1): 333.333 ng/mL and 313.333 ng/mL and 271.333 ng/mL | Norm. conc p.o. ([1]; Mouse, Time (hrs) 2): 115 ng/mL and 103.667 ng/mL and 65 ng/mL | Norm. conc p.o. ([1]; Mouse, Time (hrs) 24): 0.01333 ng/mL and 0.02 ng/mL | AUC0-∞ ([1]; i.v. 3 mg/kg, mean): 3764.7 ng·h/mL | AUClast ([1]; i.v. 3 mg/kg, mean): 3763.8 ng·h/mL | C0 ([1]; i.v. 3 mg/kg, mean): 5013.7 ng/mL | Kel ([1]; i.v. 3 mg/kg, mean): 0.58 h⁻¹ | Vss_obs ([1]; i.v. 3 mg/kg, mean): 1026.5 mL/kg | CLtotal ([1]; i.v. 3 mg/kg, mean, 3 mg/kg): 13.4 mL/min/kg and 13.36 mL/min/kg | T1/2 ([1]; i.v. 3 mg/kg, mean, 3 mg/kg): 1.2 h and 1.19 h | share of total clearance contributed by the kidney ([1]; mice): 48% | clearance contributed by the kidney ([1]; mice, total minus predicted hepatic): 6.4 mL/min/kg | %F ([1]; p.o. 30 mg/kg, mean): 70.03% | AUC0-∞ ([1]; p.o. 30 mg/kg, mean): 26362.9 ng·h/mL | AUClast ([1]; p.o. 30 mg/kg, mean): 26362.2 ng·h/mL | CLtotal ([1]; p.o. 30 mg/kg, mean): 19.21 mL/min/kg | Cmax ([1]; p.o. 30 mg/kg, mean): 25100.0 ng/mL | Kel ([1]; p.o. 30 mg/kg, mean): 0.67 h⁻¹ | T1/2 ([1]; p.o. 30 mg/kg, mean): 1.05 h | Tmax ([1]; p.o. 30 mg/kg, mean): 15 min | minimum inoculum for resistance development [2]: 10^9 | Frequency (# of parasite positive flasks or wells) ([2]; 1x10^5 Dd2-B2, 15 nM): 0/24 | Frequency (# of parasite positive flasks or wells) ([2]; 1x10^7 Dd2-B2, 15-22 nM / 10.5-14 nM): 0/3 | Frequency (# of parasite positive flasks or wells) ([2]; 1x10^8 Dd2-B2, 10.5-14 nM): 0/3 | Frequency (# of parasite positive flasks or wells) ([2]; 1x10^9 Dd2-B2, 12-27 nM): 3/3 | Frequency (# of parasite positive flasks or wells) ([2]; NF54, 7 nM): 2/2 | CYP1A2 mean fold induction ([3]; 5 µM): 1.48 and 1.11 and 1.38 | CYP1A2 mean fold induction ([3]; 15 µM): 1.04 and 1.07 and 0.844 | CYP1A2 mean fold induction ([3]; 50 µM): 0.874 and 0.824 and 0.795 | CYP1A2 mean fold induction ([3]; 150 µM): 0.704 and 0.613 and 0.609 | CYP1A2 mean fold induction ([3]; 250 µM): 0.586 and 0.436 | CYP1A2 mean fold induction ([3]; 500 µM): 0.357 and 0.496 and 0.293 | CYP1A2 induction ([3]; up to 500 µM): did not induce CYP1A2 nor CYP2B6 | CYP3A4 mean fold induction ([4]; 5 µM): 1.22 and 1.03 and 1.21 | CYP3A4 mean fold induction ([4]; 15 µM): 0.824 and 0.905 and 0.816 | CYP3A4 mean fold induction ([4]; 50 µM): 0.779 and 0.500 and 1.26 | CYP3A4 mean fold induction ([4]; 150 µM): 1.19 and 0.477 and 1.98 | CYP3A4 mean fold induction ([4]; 250 µM): 0.665 and 2.86 | CYP3A4 mean fold induction ([4]; 500 µM): 3.6 and 3.63 and 1.49 and 3.16 | concentration at which CYP3A4 was induced ([4]; 72 h, three donors): greater than 150 µM | CYP2B6 mean fold induction ([5]; 5 µM): 1.75 and 0.995 and 1.18 | CYP2B6 mean fold induction ([5]; 15 µM): 1.38 and 0.951 and 1.660 | CYP2B6 mean fold induction ([5]; 50 µM): 0.959 and 0.828 and 0.886 | CYP2B6 mean fold induction ([5]; 150 µM): 0.663 and 0.721 and 0.727 | CYP2B6 mean fold induction ([5]; 250 µM): 0.667 and 0.582 | CYP2B6 mean fold induction ([5]; 500 µM): 0.495 and 0.699 and 0.325 | CYP2B6 induction ([5]; up to 500 µM): did not induce CYP1A2 nor CYP2B6 | activity against asexual stages ([6]; 50 nM, 24 h): active against both early and late asexual blood stages | Parasitemia, rings culture ([6]; Time (h) 0): 0.4 | Parasitemia, rings culture ([6]; Time (h) 24): 0 | Parasitemia, schizonts culture ([6]; Time (h) 0): 0.2 | Parasitemia, schizonts culture ([6]; Time (h) 24): 0 | Observed hepatic/ predicted hepatic ([7]; Rat): 1.0 | Observed total-renal = observed hepatic ([7]; Rat): 13.5 mL/min/kg | Predicted hepatic plasma clearance ([7]; Rat): 13.3 mL/min/kg | Norm. conc i.v. ([7]; Rat, Time (hrs) 0): 0 ng/mL | Norm. conc i.v. ([7]; Rat, Time (hrs) 0.083333): 1040 ng/mL and 843.333 ng/mL | Norm. conc i.v. ([7]; Rat, Time (hrs) 0.25): 746.667 ng/mL and 613.333 ng/mL and 566.667 ng/mL | Norm. conc i.v. ([7]; Rat, Time (hrs) 0.5): 490 ng/mL and 406.667 ng/mL and 376.667 ng/mL | Norm. conc i.v. ([7]; Rat, Time (hrs) 1): 217.333 ng/mL and 175 ng/mL and 167 ng/mL | Norm. conc i.v. ([7]; Rat, Time (hrs) 2): 53.3333 ng/mL and 56.3333 ng/mL and 51.6667 ng/mL | Norm. conc i.v. ([7]; Rat, Time (hrs) 4): 21.4 ng/mL and 17.9 ng/mL and 18.1 ng/mL | Norm. conc p.o. ([7]; Rat, Time (hrs) 0): 0 ng/mL | Norm. conc p.o. ([7]; Rat, Time (hrs) 0.25): 726.667 ng/mL and 573.333 ng/mL and 746.667 ng/mL | Norm. conc p.o. ([7]; Rat, Time (hrs) 0.5): 686.667 ng/mL and 511.333 ng/mL and 591.333 ng/mL | Norm. conc p.o. ([7]; Rat, Time (hrs) 1): 380.667 ng/mL and 303.333 ng/mL and 362 ng/mL | Norm. conc p.o. ([7]; Rat, Time (hrs) 4): 22.4667 ng/mL and 18.8 ng/mL and 29.5 ng/mL | Norm. conc p.o. ([7]; Rat, Time (hrs) 8): 12.2 ng/mL and 7.667 ng/mL and 10.6333 ng/mL | AUC0-∞ ([7]; i.v. 3 mg/kg, mean): 2398.4 ng·h/mL | AUClast ([7]; i.v. 3 mg/kg, mean): 2394.8 ng·h/mL | C0 ([7]; i.v. 3 mg/kg, mean): 3245.1 ng/mL | Kel ([7]; i.v. 3 mg/kg, mean): 0.22 h⁻¹ | Vss_obs ([7]; i.v. 3 mg/kg, mean): 1962.4 mL/kg | CLtotal ([7]; i.v. 3 mg/kg, mean, 3 mg/kg): 21.1 mL/min/kg and 21.14 mL/min/kg and 21 mL/min/kg | T1/2 ([7]; i.v. 3 mg/kg, mean, 3 mg/kg): 3.1 h and 3.13 h | AUC0-∞ ([7]; p.o. 30 mg/kg, mean): 29077.1 ng·h/mL | AUClast ([7]; p.o. 30 mg/kg, mean): 29063.9 ng·h/mL | CLtotal ([7]; p.o. 30 mg/kg, mean): 17.57 mL/min/kg | Cmax ([7]; p.o. 30 mg/kg, mean): 20466.7 ng/mL | Kel ([7]; p.o. 30 mg/kg, mean): 0.27 h⁻¹ | T1/2 ([7]; p.o. 30 mg/kg, mean): 2.57 h | Tmax ([7]; p.o. 30 mg/kg, mean): 15 min | %F ([7]; p.o. 30 mg/kg, mean, 30 mg/kg): 121% and 121.24%
